# Measured values as given in paper PMC10051811, “Plasma and Cerebrospinal Fluid Concentrations of Micafungin Administered at High Doses in Critically Ill Infants with Systemic Candidiasis: A Pooled Analysis of Two Studies” (Pharmaceuticals, 2023).
# Where two headings read alike, the source gives them in different places. *1 amine or outer side, *2 acyl side, *3 side chain or, on linkers, in order; H or OH if unused. Where a SMILES comes first, the peptide text is derived from it. Bridges are numbered along the chain shown (N, C = ends). [ ]: non-standard residue; d: D form. The star is where a group is joined. hTyr(3S-OH,4S-OH,3'-OSO3H) = N[C@H](C(=O)O)[C@H](O)[C@@H](O)c1ccc(O)c(OS(=O)(=O)O)c1; Orn(4R-OH,5R-OH) = O=C([C@H](C[C@@H](O)[C@@H](O)N[*:3])N[*:1])[*:2]; Pro(3S-OH,4S-Me) = C[C@H]1CN[C@H](C(=O)O)[C@H]1O; X1 = CCCCCOc1ccc(-c2cc(-c3ccc(C(=O)*)cc3)no2)cc1; Gln(3R-OH) = NC(=O)C[C@@H](O)[C@H](N)C(=O)O; Hyp = O=C(O)[C@@H]1C[C@@H](O)CN1
# Key:
# [1] = Micafungin plasma pharmacokinetics in neonates and young infants (HPLC); type: in vivo, human; conditions: for level at 1 h: read-out: Plasma values after 1 h; for level at 8 h: read-out: Plasma values after 8 h; for level at -1 h: read-out: Plasma values before infusion
# Experimental: (§1) The dosage was formulated as a 2 mg/mL solution in 0.9% saline solution and administered intravenously over 1 h once daily. Infants who died within the first 48 h and those with acute or chronic hepatic diseases and/or known hypersensitivity to echinocandins were excluded. Each study with specific inclusion/exclusion criteria and definitions has been described in detail elsewhere.
# (§2) Micafungin plasma and CSF concentrations were measured 1 h before and 1, 2, and 8 h after the end of the infusion. Sampling overlapped with those required for the clinical monitoring of these critical children. Blood samples were collected via heel puncture, using 0.3 mL capillary microtubes with EDTA, between Days 3 and 10 of micafungin therapy. Five minutes prior to sampling, the heel was warmed with a hot compress (40 °C), and puncture was performed using a Gentleheel incision device (Cardinal Health, Dublin, OH, USA) at alternate sites per timepoint. Blood picked up was centrifuged at 3000× g, and the plasma residue was stored at 4 °C until analyzed within 6 h or frozen at −20 °C and analyzed within 7 days, as previously reported. Drug concentrations were measured via high-performance liquid chromatography (HPLC). An HPLC method with a diode array detector was validated to fine-tune the measurement on small amounts of plasma (0.3 mL whole blood).
# Moreover, we assessed the optimal dosage to obtain systemic drug exposure equivalent to that considered to be effective in adult patients. Systemic drug exposure was assessed via the area under the curve for 24 h (AUC0–24), the plasma clearance (CL), and the half-life. Results were stratified according to chronological age.
# [2] = cited from earlier work
# From the text: This mechanism of action explains their characteristics of high specificity, even against resistant species of Candida. Micafungin is primarily eliminated via biliary excretion (90%), while the route of elimination via the kidney appears to be of minor importance in humans. Micafungin is bound to plasma proteins up to 99.5%. The binding to plasma proteins seems to be a ...
# [3] = Micafungin concentrations in cerebrospinal fluid of infants with Candida meningitis (HPLC); type: in vivo; conditions: human, iv; for Kp at 1 h / Kp at 8 h / Kp: CSF (ratio to plasma); for Kp at 1 h: read-out: CSF/plasma ratio after 1 h; for Kp at 8 h: read-out: CSF/plasma ratio after 8 h; for Kp: read-out: CSF/plasma ratio before infusion; for level at 1 h / level at 8 h / level at -1 h: cerebrospinal fluid, HPLC; for level at 1 h: read-out: CSF values after 1 h; for level at 8 h: read-out: CSF values after 8 h; for level at -1 h: read-out: CSF values before infusion
# Experimental: as §2, with “blood). […]” for “blood).”
# [4] = system: rats; conditions: rats treated for 3 months or more, dose of 150 mg/day (eight times the highest recommended human dose); cited from earlier work
# [5] = Treatment-emergent adverse events (TEAEs) in treated infants; type: in vivo, human
# Experimental: In order to evaluate drug safety, we analyzed treatment-emergent adverse effects (TEAEs). TEAEs were defined as an adverse effect experienced any time during the study’s drug administration to 72 h after the last dose of the study drug. A reasonable possibility that the event could have been caused by the study drug was assessed by the investigators; if the relationship was missing, it was considered to be drug-related.
# [6] = ref 1 (Yanni et al.), cited from earlier work
# Experimental: Yanni et al. observed an increased clearance of micafungin in infants and children: 40–80 mL/h/kg in premature infants and 20 mL/h/kg in children >4 months of age.
# [7] = system: invasive candidiasis; assay: Microbiological and clinical success of micafungin therapy in infants with invasive candidiasis; type: in vivo, human; conditions: 8-15 mg/kg/day iv
# Experimental: For this pooled analysis, we included data from a total of fifty-three neonates enrolled, aged ≤180 days (from the gestational age corrected at 37 weeks), affected with proven or suspected systemic candidiasis, whereby 3 of them had meningitis, who were treated for at least 14 days with micafungin (Mycamine®) at a dosage ranging from 8 to 15 mg/kg/day intravenously.
# as §1
# [8] = human, iv, 7 mg/kg/day, Patient 1, dose 7 mg/kg/day iv, HPLC
# [9] = human, iv, 8 mg/kg/day, Patient 3, dose 8 mg/kg/day iv, HPLC
# [10] = human, iv, 10 mg/kg/day, Patient 1, dose 10 mg/kg/day iv, HPLC
# [11] = human, iv, 10 mg/kg/day, Patient 2, dose 10 mg/kg/day iv, HPLC
# [12] = human, iv, 15 mg/kg/day, Patient 2, dose 15 mg/kg/day iv, HPLC
# [13] = 7 mg/kg/day, Patient 1, dose 7 mg/kg/day iv
# [14] = 8 mg/kg/day, Patient 3, dose 8 mg/kg/day iv
# [15] = 10 mg/kg/day, Patient 1, dose 10 mg/kg/day iv
# [16] = 10 mg/kg/day, Patient 2, dose 10 mg/kg/day iv
# [17] = 15 mg/kg/day, Patient 2, dose 15 mg/kg/day iv
compound,measurement,setting,value
"CCCCCOc1ccc(-c2cc(-c3ccc(C(=O)N[C@H]4C[C@@H](O)[C@@H](O)NC(=O)[C@@H]5[C@@H](O)[C@@H](C)CN5C(=O)[C@H]([C@H](O)CC(N)=O)NC(=O)[C@H]([C@H](O)[C@@H](O)c5ccc(O)c(OS(=O)(=O)O)c5)NC(=O)[C@@H]5C[C@@H](O)CN5C(=O)[C@H]([C@@H](C)O)NC4=O)cc3)no2)cc1 [micafungin] (X1-[Orn(4R-OH,5R-OH)]T[Hyp][hTyr(3S-OH,4S-OH,3'-OSO3H)][Gln(3R-OH)][Pro(3S-OH,4S-Me)]; lactam 1-C)",half-life,"[1]; age 0 to ≤28 days (n = 16), 8-15 mg/kg/day iv, mean ± SD, SD",13.5 ± 7.6 h
same,Clearance/weight,"[1]; age >28 days ≤120 days (n = 23), 8-15 mg/kg/day iv, mean ± SD, SD",0.6 ± 0.167 mL/min/kg
same,level at 1 h,[1]; [8],15600 ng/mL
same,level at 8 h,[1]; [8],8900 ng/mL
same,level at -1 h,[1]; [8],2900 ng/mL
same,level at 1 h,[1]; [9],27000 ng/mL
same,level at 8 h,[1]; [9],16800 ng/mL
same,level at -1 h,[1]; [9],9120 ng/mL
same,level at 1 h,[1]; [10],21700 ng/mL
same,level at 8 h,[1]; [10],6580 ng/mL
same,level at -1 h,[1]; [10],3200 ng/mL
same,level at 1 h,[1]; [11],17400 ng/mL
same,level at 8 h,[1]; [11],8900 ng/mL
same,level at -1 h,[1]; [11],6700 ng/mL
same,level at 1 h,[1]; [12],21900 ng/mL
same,level at 8 h,[1]; [12],12200 ng/mL
same,level at -1 h,[1]; [12],5800 ng/mL
same,clearance,"[1]; human, iv, age 0 to ≤28 days (n = 16), 8-15 mg/kg/day iv over 1 h once daily, HPLC, mean ± SD, SD, read-out: Clearance (converted)",1.2 mL/min
same,clearance,"[1]; human, iv, age 0 to ≤28 days (n = 16), 8-15 mg/kg/day iv, mean ± SD, SD, read-out: Clearance/weight (converted)",0.6 mL/min/kg
same,clearance,"[1]; human, iv, age >28 days ≤120 days (n = 23), 8-15 mg/kg/day iv over 1 h once daily, HPLC, mean ± SD, SD, read-out: Clearance (converted)",1.45 mL/min
same,half-life,"[1]; human, iv, age >28 days ≤120 days (n = 23), 8-15 mg/kg/day iv, mean ± SD, SD, read-out: Half-life (converted)",13.4 ± 4.3 h
same,clearance,"[1]; human, iv, age >120 days (n = 13), 8-15 mg/kg/day iv over 1 h once daily, HPLC, mean ± SD, SD, read-out: Clearance (converted)",1.82 mL/min
same,clearance,"[1]; human, iv, age >120 days (n = 13), 8-15 mg/kg/day iv, mean ± SD, SD, read-out: Clearance/weight (converted)",0.467 mL/min/kg
same,half-life,"[1]; human, iv, age >120 days (n = 13), 8-15 mg/kg/day iv, mean ± SD, SD, read-out: Half-life (converted)",14.4 ± 4.2 h
same,AUC(0-t),"[1]; human, iv, plasma AUC0–24, age 0 to ≤28 days (n = 16), 8-15 mg/kg/day iv, mean ± SD, SD",259 ± 92.7 µg·h/mL
same,AUC(0-t),"[1]; human, iv, plasma AUC0–24, age >28 days ≤120 days (n = 23), 8-15 mg/kg/day iv, mean ± SD, SD",237 ± 63.9 µg·h/mL
same,AUC(0-t),"[1]; human, iv, plasma AUC0–24, age >120 days (n = 13), 8-15 mg/kg/day iv, mean ± SD, SD",346 ± 145 µg·h/mL
same,Bound to plasma proteins,[2],up to 99.5%
same,Elimination via biliary excretion,[2]; humans,90%
same,Kp at 1 h,[3]; [13],0.01
same,Kp at 8 h,[3]; [13],0.02
same,Kp,[3]; [13],0.05
same,Kp at 1 h,[3]; [14],0.06
same,Kp at 8 h,[3]; [14],0.08
same,Kp,[3]; [14],0.22
same,Kp at 1 h,[3]; [15],0.06
same,Kp at 8 h,[3]; [15],0.19
same,Kp,[3]; [15],0.38
same,Kp at 1 h,[3]; [16],0.03
same,Kp at 8 h,[3]; [16],0.03
same,Kp,[3]; [16],0.06
same,Kp at 1 h,[3]; [17],0.05
same,Kp at 8 h,[3]; [17],0.07
same,Kp,[3]; [17],0.16
same,level at 1 h,[3]; [13],150 ng/mL
same,level at 8 h,[3]; [13],150 ng/mL
same,level at -1 h,[3]; [13],150 ng/mL
same,level at 1 h,[3]; [14],1700 ng/mL
same,level at 8 h,[3]; [14],1300 ng/mL
same,level at -1 h,[3]; [14],2000 ng/mL
same,level at 1 h,[3]; [15],1230 ng/mL
same,level at 8 h,[3]; [15],1230 ng/mL
same,level at -1 h,[3]; [15],1230 ng/mL
same,level at 1 h,[3]; [16],500 ng/mL
same,level at 8 h,[3]; [16],300 ng/mL
same,level at -1 h,[3]; [16],400 ng/mL
same,level at 1 h,[3]; [17],1100 ng/mL
same,level at 8 h,[3]; [17],800 ng/mL
same,level at -1 h,[3]; [17],900 ng/mL
same,Hepatotoxicity finding in rats,[4],development of hepatocellular tumors
same,Patients with overall treatment-emergent adverse events (TEAEs),"[5]; 53 infants, 8-15 mg/kg/day iv, thirty-four patients",64.2%
same,Patients with transient hypertransaminasaemia,"[5]; 53 infants, one patient, drug-related TEAE",1.9%
same,Drug-related TEAEs (not serious),"[5]; 53 infants, three TEAEs",5.7%
same,"TEAEs leading to death (septic shock, not drug-related)","[5]; 53 infants, three cases",5.7%
same,Patients with transiently increased levels of gamma-glutamyltransferase,"[5]; 53 infants, two patients, drug-related TEAE",3.8%
same,Serious adverse events related to the therapy,[5]; high doses 8–15 mg/kg/day in neonates and infants,no serious adverse events
same,clearance,[6]; children >4 months of age,0.333 mL/min/kg
same,clearance,[6]; premature infants,0.667 to 1.33 mL/min/kg
same,Clinical recovery,[7]; infants with systemic candidiasis,all infants clinically recovered
same,Microbiological success of the therapy,"[7]; subjects with invasive candidiasis, mean treatment duration 16.7 days, 95% CI = 51.2–97.9",83.3%
